Experimental findings from ChEMBL document CHEMBL1156618, “Design, synthesis and in vitro antitumor activity of 4-aminoquinoline and 4-aminoquinazoline derivatives targeting EGFR tyrosine kinase” (Bioorg Med Chem, 2008) are described below.

The source made the active and inactive calls. The calls are words filed in the database; no cut-off is given here.

The subject of the assay is MCF7. Description: Cytotoxicity against human MCF7 cells after 48 hrs by SRB assay. Format: functional, cell-based. A general note: The SRB assay estimates cell density from bound dye.

The IC50 is the concentration that gives 50% inhibition. A high value points to weaker potency. On to `COc1cc2nc(Cl)nc(N3CCN(S(=O)(=O)c4ccc(C)cc4)CC3)c2cc1OC`, for which the IC50 came out at 1.08 µM. For the compound `CCOc1ccc2nc(C)cc(Nc3ccc(S(=O)(=O)Nc4ncccn4)cc3)c2c1`, the IC50 is 3.96 µM. `COc1cc2nc(Cl)nc(Nc3ccc(S(=O)(=O)Nc4cc(C)on4)cc3)c2cc1OC` yielded an IC50 of 1.98 µM. In the case of `CCOc1ccc2nc(C)cc(Nc3cccc(O)c3)c2c1`, the midpoint of inhibition, the IC50, lay at 2.84 µM. In turn, `CCOc1ccc2nc(C)cc(Nc3ccc(S(=O)(=O)Nc4cc(C)on4)cc3)c2c1` came in with an IC50 of 13.8 µM. As to `CCOc1ccc2nc(C)cc(Nc3ccc(S(=O)(=O)Nc4nccs4)cc3)c2c1`, the result was inactive. `CCOc1ccc2nc(C)cc(Nc3ccc(Cl)cc3Cl)c2c1` came in with an IC50 of 4.38 µM.

`COc1cc2nc(Cl)nc(Nc3ccc(S(=O)(=O)Nc4nccs4)cc3)c2cc1OC` came in with an IC50 of 0.13 µM. Consider `CCOc1ccc2nc(C)cc(Nc3ccc(S(=O)(=O)NC(=N)N)cc3)c2c1`, for which half-maximal inhibition (IC50) required 19.2 µM.

As to `CCOc1ccc2nc(C)cc(N3CCN(C(=O)c4ccco4)CC3)c2c1`, 4.31 µM corresponded to half-maximal inhibition (IC50). `CCOc1ccc2nc(C)cc(Nc3cc(OC)c(OC)cc3C(=O)OC)c2c1` gave an IC50 of 1.67 µM.
